In PubChem BioAssay (NCI):
Several values for one entry are separate records, joined by “and”; a condition that tells them apart may be missing. Identical values can stand only once.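 Step 1: Grow cells in 96-well plates. Step 2: Expose to compound for 48 hours at 5 concentrations. Step 3: Interpolate endpoints linearly; if unreached, use highest concentration. GI50: concentration for 50% inhibition of growth. TGI: concentration producing complete growth inhibition.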

How the values were obtained:
Assay in all cases: DTP human tumour cell line panel, 48 h
DLD-1 colon = system: DLD-1 colon
UACC-62 melanoma = system: UACC-62 melanoma
EKVX NSCLC = system: EKVX NSCLC
OVCAR-4 ovarian = system: OVCAR-4 ovarian
SF-295 CNS = system: SF-295 CNS
KM20L2 colon = system: KM20L2 colon
MALME-3M melanoma = system: MALME-3M melanoma
MDA-MB-231 breast = system: MDA-MB-231 breast
A549 NSCLC = system: A549 NSCLC
TK-10 renal = system: TK-10 renal

Compound | TGI (DLD-1 colon) [µM] | TGI (UACC-62 melanoma) [µM] | TGI (EKVX NSCLC) [µM] | TGI (OVCAR-4 ovarian) [µM] | TGI (SF-295 CNS) | TGI (KM20L2 colon) [µM] | TGI (MALME-3M melanoma) | TGI (MDA-MB-231 breast) | TGI (A549 NSCLC) [µM] | GI50 (UACC-62 melanoma) [µM] | GI50 (TK-10 renal) [µM] | TGI (TK-10 renal) [µM] | GI50 (OVCAR-4 ovarian) [µM] | GI50 (MDA-MB-231 breast) [µM] | GI50 (A549 NSCLC) [µM] | GI50 (DLD-1 colon) [µM] | GI50 (EKVX NSCLC) [µM] | GI50 (SF-295 CNS) [µM] | GI50 (KM20L2 colon) [µM] | GI50 (MALME-3M melanoma) [µM]
CN(C)CCN1C(=O)c2cccc3cc([N+](=O)[O-])cc(c23)C1=O | 28.4 | 1.03 | 2.68 | 6.37 | 1.38 µM | 5.63 | 1.84 µM | 14.6 µM | 0.397 |  |  |  |  |  |  |  |  |  |  | 
CCN(CC)CCCC(C)Nc1ccnc2cc(Cl)ccc12 (stereo not given) | > 100 | > 100 | > 100 | > 100 | 59.9 µM and > 60.1 µM | 44.5 | 48.7 µM and 35.7 µM | > 100 µM and 73.4 µM | > 100 | 37.6 | 42.1 | > 100 | > 100 | > 100 | 64.9 |  |  |  |  | 
BrC(Br)=C1C(=C(Br)Br)C(Br)C1Br (stereo not given) | 1.98 | 1.91 | 4.98 | 6.18 | 2.32 µM | 3.04 | 1.59 µM | 3.63 µM | 3 |  |  | 1.93 |  |  |  |  |  |  |  | 
Cc1c2ccn(O)cc2c(C)c2c1nc1ccccc12 | > 100 | 41.6 | > 71.3 | > 100 | 23.4 µM | > 100 | > 41.8 µM | > 100 µM | > 100 |  |  | > 66.1 |  |  |  |  |  |  |  | 
N.N.N.N.N.NC(=O)[O-].[Co+3].[I-] | > 100 | > 100 | > 100 | > 100 | > 100 µM | > 100 | > 100 µM |  | > 100 | > 100 | > 100 | > 100 | > 100 |  | > 100 | > 100 | > 100 | > 100 | > 100 | > 100
CO[C@@H]1C=C[C@@]23c4cc5c(cc4CN(C[C@@H]2O)[C@H]3C1)OCO5 | > 100 | 64.2 | > 100 | 18.8 | > 100 µM | > 100 | 76 µM |  | > 100 |  |  | > 100 |  |  |  |  |  |  |  | 
CN1CN(C2OC(CO)C(O)C2O)c2nc(N)[nH]c(=O)c21 (stereo not given) | > 100 | > 100 | > 100 | > 100 | > 100 µM | > 100 | > 100 µM |  | > 100 |  |  | > 100 |  |  |  |  |  |  |  | 
